Measured values published in US9339503B2, “Tetrahydro-quinazolinone derivatives as TANK and PARP inhibitors” (MERCK PATENT GMBH, priority 2012, dated 2016).

Key:
[1] = system: tankyrase 1/2; test: Measurement of cellular inhibition of tankyrase (Axin2 level, Luminex based assay, DLD1 cells); details: 24 hours, increase of Axin2 level, read-out: EC50 tankyrase 1/2 (cell assay)
Procedure: Measurement of Cellular Inhibition of Tankyrase
Since Tankyrases have been described to modulate cellular level of Axin2 (Huang et al., 2009; Nature) the increase of Axin2 level is used as read-out for determination of cellular inhibition of Tankyrases in a Luminex based assay.
Cells of the colon carcinoma cell line DLD1 are plated in 96 well plates with 1.5×10^4 cells per well. Next day, cells are treated with a serial-dilution of test compound in seven steps as triplicates with a final DMSO concentration of 0.3%. After 24 hours, cells are lysed in lysis buffer (20 mM Tris/HCl pH 8.0, 150 mM NaCl, 1% NP40, 10% Glycerol) and lysates are cleared by centrifugation through a 96 well filter plate (0.65 μm). Axin2 protein is isolated from cell lysates by incubation with a monoclonal anti-Axin2 antibody (R&D Systems #MAB6078) that is bound to fluorescent carboxybeads. Then, bound Axin2 is specifically detected with a polyclonal anti-Axin2 antibody (Cell Signaling #2151) and an appropriate PE-fluorescent secondary antibody. The amount of isolated Axin2 protein is determined in a Luminex^200 machine (Luminex Corporation) according to the manufacturer's instruction by counting 100 events per well. […] For analysis, the obtained data were normalized against the untreated solvent control and fitted for determination of the EC50 values using the Assay Explorer software (Accelrys).

[2] = molecular target: T1, GST-tagged Tankyrase-1 (1023-1327 aa) (Homo sapiens, UniProt O95271); test: Tankyrase 1 autoparsylation assay (HTRF enzyme assay); type: biochemical
T1 construct: GST-tagged Tankyrase-1 (1023-1327 aa)
T1 sequence (O95271 1023-1327): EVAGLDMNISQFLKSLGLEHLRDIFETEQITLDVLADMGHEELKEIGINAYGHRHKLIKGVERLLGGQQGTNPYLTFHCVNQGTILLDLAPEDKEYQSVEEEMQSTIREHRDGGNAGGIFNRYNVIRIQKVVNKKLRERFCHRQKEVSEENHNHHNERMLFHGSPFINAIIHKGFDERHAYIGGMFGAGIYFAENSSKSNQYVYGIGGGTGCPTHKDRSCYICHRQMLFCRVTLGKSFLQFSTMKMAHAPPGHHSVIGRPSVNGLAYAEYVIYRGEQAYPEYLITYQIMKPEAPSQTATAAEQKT
Procedure: (§1) The autoparsylation assay was run in two steps: the enzymatic reaction in which GST-tagged Tankyrase-1, resp Tankyrase-2 transferred biotinylated ADP-ribose to itself from biotinylated NAD as co-substrate and the detection reaction where a time resolved FRET between cryptate labelled anti-GST bound to the GST tag of the enzyme and Xlent® labelled-streptavidin bound the biotin-parsylation residue was analysed. The autoparsylation activity was detectable directly via the increase in HTRF signal.
(§2) The autoparsylation assay was performed as 384-well HTRF® (Cisbio, Codolet, France) assay format in Greiner low volume nb 384-well microtiter plates and was used for high throughput screen. 250 nM GST-tagged Tankyrase-1 (1023-1327 aa), respectively about 250 nM GST-tagged Tankyrase-2 (873-1166 aa) and 5 μM bio-NAD (Biolog, Life science Inst., Bremen, Germany) as co-substrate were incubated in a total volume of 5 μl (50 mM HEPES, 4 mM Mg-chloride, 0.05% Pluronic F-68, 1.4 mM DTT, 0.5% DMSO, pH 7.7) in the absence or presence of the test compound (10 dilution concentrations) for 90 min at 30° C. The reaction was stopped by the addition of 1 μl 50 mM EDTA solution. 2 μl of the detection solution (1.6 μM SA-Xlent® (Cisbio, Codolet, France), 7.4 nM Anti-GST-K® (Eu-labelled anti-GST, Cisbio, Codolet, France) in 50 mM HEPES, 800 mM KF, 0.1% BSA, 20 mM EDTA, 0.1% CHAPS, pH 7.0) were added. After 1 h incubation at room temperature the HTRF was measured with an Envision multimode reader (Perkin Elmer LAS Germany GmbH) at excitation wavelength 340 nm (laser mode) and emission wavelengths 615 nm and 665 nm. The ratio of the emission signals was determined. The full value used was the inhibitor-free reaction. The pharmacological zero value used was XAV-939 (Tocris) in a final concentration of 5 μM. The inhibitory values (IC50) were determined using either the program Symyx Assay Explorer® or Condosseo® from GeneData.

[3] = molecular target: T2, GST-tagged Tankyrase-2 (873-1166 aa) (Homo sapiens, UniProt Q9H2K2); test: Tankyrase 2 autoparsylation assay (HTRF enzyme assay); type: biochemical
T2 construct: GST-tagged Tankyrase-2 (873-1166 aa)
T2 sequence (Q9H2K2 873-1166): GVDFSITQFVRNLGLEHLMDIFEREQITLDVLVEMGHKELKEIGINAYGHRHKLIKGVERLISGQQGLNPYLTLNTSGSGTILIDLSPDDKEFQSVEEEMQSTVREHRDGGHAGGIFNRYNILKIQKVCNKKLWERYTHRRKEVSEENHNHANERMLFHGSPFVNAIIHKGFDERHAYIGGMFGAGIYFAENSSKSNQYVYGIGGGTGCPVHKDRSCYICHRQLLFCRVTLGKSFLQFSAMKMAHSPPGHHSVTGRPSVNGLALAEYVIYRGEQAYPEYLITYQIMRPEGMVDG
Procedure: as §1, §2

[4] = molecular target: T3, GST-tagged Tnks-1 (1023-1327 aa) (Homo sapiens, UniProt O95271); test: TNKS 1 activity ELISA (autoparsylation assay); type: biochemical; details: read-out: IC50 tankyrase 1 (ELISA assay)
T3 construct: GST-tagged Tnks-1 (1023-1327 aa, prepared in-house); made in house
T3 sequence (O95271 1023-1327): as the sequence (O95271 1023-1327) above
Procedure: (§3) Biochemical Activity Testing of TNKS 1 and 2: Activity ELISA (Autoparsylation Assay)
(§4) For analysis of autoparsylation activity of TNKS 1 and 2 an activity ELISA was performed: In the first step GST tagged TNKS was captured on a Glutathione coated plate. Then the activity assay with biotinylated NAD was performed in the absence/presence of the compounds. During the enzymatic reaction GST tagged TNKS transferred biotinylated ADP-ribose to itself from biotinylated NAD as co-substrate. For the detection streptavidin-HRP conjugate was added that bound to the biotinylated TNKS and was thereby captured to the plates. The amount of biotinylated resp autoparsylated TNKS was detected with a luminescence substrate for HRP. The level of the luminescence signal correlated directly with the amount of autoparsylated TNKS and therefore with activity of TNKS.
(§5) The activity ELISA was performed in 384 well Glutathione coated microtiter plates (Express capture Glutathione coated plate, Biocat, Heidelberg, Germany). The plates were pre-equilibrated with PBS. Then the plates were incubated with 50 μl 20 ng/well GST-tagged Tnks-1 (1023-1327 aa, prepared in-house), respectively GST-tagged Tnks-2 (873-1166 aa, prepared in-house) in assay buffer (50 mM HEPES, 4 mM Mg-chloride, 0.05% Pluronic F-68, 2 mM DTT, pH 7.7) overnight at 4° C. The plates were washed 3 times with PBS-Tween-20. The wells were blocked by incubation at room temperature for 20 minutes with 50 μl blocking buffer (PBS, 0.05% Tween-20, 0.5% BSA). Afterwards the plates were washed 3 times with PBS-Tween-20. The enzymatic reaction was performed in 50 μl reaction solution (50 mM HEPES, 4 mM Mg-chloride, 0.05% Pluronic F-68, 1.4 mM DTT, 0.5% DMSO, pH 7.7) with 10 μM bio-NAD (Biolog, Life science Inst., Bremen, Germany) as co-substrate in the absence or presence of the test compound (10 dilution concentrations) for 1 hour at 30° C. The reaction was stopped by 3 times washing with PBS-Tween-20. For the detection 50 μl of 20 ng/μl Streptavidin, HRP conjugate (MoBiTec, Göttingen, Germany) in PBS/0.05% Tween-20/0.01% BSA were added and the plates were incubated for 30 minutes at room temperature. After three times washing with PBS-Tween-20 50 μl of SuperSignal ELISA Femto Maximum sensitivity substrate solution (ThermoFisherScientific (Pierce), Bonn, Germany) were added. Following a 1 minute incubation at room temperature luminescence signals were measured with an Envision multimode reader (Perkin Elmer LAS Germany GmbH) at 700 nm. The full value used was the inhibitor-free reaction. The pharmacological zero value used was XAV-939 (Tocris) in a final concentration of 5 μM. The inhibitory values (IC50) were determined using either the program Symyx Assay Explorer® or Condosseo® from GeneData.

[5] = molecular target: T4, GST-tagged Tnks-2 (873-1166 aa) (Homo sapiens, UniProt Q9H2K2); test: TNKS 2 activity ELISA (autoparsylation assay); type: biochemical; details: read-out: IC50 tankyrase 2 (ELISA assay)
T4 construct: GST-tagged Tnks-2 (873-1166 aa, prepared in-house); made in house
T4 sequence (Q9H2K2 873-1166): as the sequence (Q9H2K2 873-1166) above
Procedure: as §3, §4, §5

[6] = molecular target: T5, His-tagged Parp-1 (Homo sapiens, UniProt P09874); test: PARP-1 autoparsylation assay (HTRF); type: biochemical; details: read-out: IC50 PARP1
T5 construct: purchased Enzo Life Sciences GmbH, Lörrach, Germany
T5 sequence (P09874 whole entry): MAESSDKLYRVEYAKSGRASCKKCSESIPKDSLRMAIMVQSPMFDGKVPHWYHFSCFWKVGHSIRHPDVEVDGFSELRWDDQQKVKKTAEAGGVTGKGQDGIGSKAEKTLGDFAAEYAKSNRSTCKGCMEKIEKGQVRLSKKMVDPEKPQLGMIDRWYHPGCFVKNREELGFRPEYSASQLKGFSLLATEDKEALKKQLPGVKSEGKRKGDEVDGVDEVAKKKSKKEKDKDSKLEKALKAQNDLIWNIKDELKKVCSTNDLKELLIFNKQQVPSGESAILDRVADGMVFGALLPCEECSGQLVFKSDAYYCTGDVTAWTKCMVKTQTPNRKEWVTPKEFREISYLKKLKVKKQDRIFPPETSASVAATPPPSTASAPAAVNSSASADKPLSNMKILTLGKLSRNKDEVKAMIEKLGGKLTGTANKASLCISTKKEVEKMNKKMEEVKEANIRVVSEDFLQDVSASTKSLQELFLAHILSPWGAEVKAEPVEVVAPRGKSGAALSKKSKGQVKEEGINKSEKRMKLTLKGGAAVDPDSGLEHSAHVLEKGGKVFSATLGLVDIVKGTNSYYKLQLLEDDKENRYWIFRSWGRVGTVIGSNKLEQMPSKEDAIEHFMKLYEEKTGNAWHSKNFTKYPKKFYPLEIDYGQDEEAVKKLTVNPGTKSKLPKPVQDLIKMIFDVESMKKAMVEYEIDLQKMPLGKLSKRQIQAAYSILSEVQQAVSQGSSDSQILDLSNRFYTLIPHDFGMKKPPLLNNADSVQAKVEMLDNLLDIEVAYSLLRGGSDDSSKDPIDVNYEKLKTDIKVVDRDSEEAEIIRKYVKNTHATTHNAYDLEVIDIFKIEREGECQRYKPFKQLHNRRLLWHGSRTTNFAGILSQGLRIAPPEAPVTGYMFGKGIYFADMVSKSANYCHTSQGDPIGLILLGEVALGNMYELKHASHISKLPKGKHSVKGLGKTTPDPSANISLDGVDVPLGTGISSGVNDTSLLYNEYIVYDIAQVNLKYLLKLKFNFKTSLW
Procedure: Biochemical Activity Testing of PARP-1: Autoparsylation Assay
as §1, with “His-tagged Parp-1” for “GST-tagged Tankyrase-1, resp Tankyrase-2”, “ADP-ribose/ADP-ribose” for “ADP-ribose”, “NAD/NAD” for “NAD”, “anti-His antibody” for “anti-GST”, “His” for “GST”
The autoparsylation assay was performed as 384-well HTRF® (Cisbio, Codolet, France) assay format in Greiner low volume nb 384-well microtiter plates. 35 nM His-tagged Parp-1 (human, recombinant, Enzo Life Sciences GmbH, Lörrach, Germany) and a mixture of 125 nM bio-NAD (Biolog, Life science Inst., Bremen, Germany) and 800 nM NAD as co-substrate were incubated in a total volume of 6 μl (100 mM Tris/HCl, 4 mM Mg-chloride, 0.01% IGEPAL® CA630, 1 mM DTT, 0.5% DMSO, pH 8, 13 ng/μl activated DNA (BPS Bioscience, San Diego, US)) in the absence or presence of the test compound (10 dilution concentrations) for 150 min at 23° C. The reaction was stopped by the addition of 4 μl of the Stop/detection solution (70 nM SA-Xlent® (Cisbio, Codolet, France), 2.5 nM Anti-His-K® (Eu-labelled anti-His, Cisbio, Codolet, France) in 50 mM HEPES, 400 mM KF, 0.1% BSA, 20 mM EDTA, pH 7.0). After 1 h incubation at room temperature the HTRF was measured with an Envision multimode reader (Perkin Elmer LAS Germany GmbH) at excitation wavelength 340 nm (laser mode) and emission wavelengths 615 nm and 665 nm. The ratio of the emission signals was determined. The full value used was the inhibitor-free reaction. The pharmacological zero value used was Olaparib (LClabs, Woburn, US) in a final concentration of 1 μM. The inhibitory values (IC50) were determined using either the program Symyx Assay Explorer® or Condosseo® from GeneData.

[7] = system: DLD-1-cancer cells; details: cited from earlier work

| Compound | EC50 [1] | IC50 [2] | IC50 [3] | IC50 [4] | IC50 [5] | IC50 [6] | growth of DLD-1-cancer cells [7] |
| --- | --- | --- | --- | --- | --- | --- | --- |
| O=c1[nH]c(N2CCC(C(F)(F)F)CC2)nc2c1CCCC2 [Compound A10, 2-(4-Trifluoromethylpiperidin-1-yl)-5,6,7,8-tetrahydro-3H-quinazolin-4-one] | 3000 to 50000 nM | 300 to 3000 nM | 300 to 3000 nM | < 300 nM | < 300 nM |  |  |
| O=c1[nH]c(N2CCN(c3cccc(Cl)c3)CC2)nc2c1CCCC2 [Compound A11, 2-[4-(3-Chlorophenyl)piperazin-1-yl]-5,6,7,8-tetrahydro-3H-quinazolin-4-one] | 300 to 3000 nM | 300 to 3000 nM | 300 to 3000 nM | < 300 nM | < 300 nM |  |  |
| NC(=O)c1ccccc1N1CCN(c2nc3c(c(=O)[nH]2)CCCC3)CC1 [Compound A34, 2-[4-(4-oxo-5,6,7,8-tetrahydro-3H-quinazolin-2-yl)piperazin-1-yl]benzamide] |  | < 300 nM | 300 to 3000 nM | < 300 nM | < 300 nM | < 300 nM |  |
| COc1ccc(N2CCN(c3nc4c(c(=O)[nH]3)CCCC4)CC2)c(OC)c1 [Compound A37, 2-[4-(2,4-dimethoxyphenyl)piperazin-1-yl]-5,6,7,8-tetrahydro-3H-quinazolin-4-one] | 300 to 3000 nM | 300 to 3000 nM | 300 to 3000 nM | < 300 nM | < 300 nM |  |  |
| O=c1[nH]c(N2CCN(c3ccc(F)cc3Cl)CC2)nc2c1CCCC2 [Compound A39, 2-[4-(2-chloro-4-fluoro-phenyl)piperazin-1-yl]-5,6,7,8-tetrahydro-3H-quinazolin-4-one] | 300 to 3000 nM | 300 to 3000 nM | 300 to 3000 nM | < 300 nM | < 300 nM |  |  |
| COc1ccc(N2CCN(c3nc4c(c(=O)[nH]3)CCCC4)CC2)cn1 [Compound A51, 2-[4-(6-methoxy-3-pyridyl)piperazin-1-yl]-5,6,7,8-tetrahydro-3H-quinazolin-4-one] | 300 to 3000 nM | 300 to 3000 nM | 300 to 3000 nM | 300 to 3000 nM | 300 to 3000 nM |  |  |
| COc1ccccc1C1CCN(c2nc3c(c(=O)[nH]2)CCCC3)CC1 [Compound A54, 2-[4-(2-methoxy-phenyl)-piperidin-1-yl]-5,6,7,8-tetrahydro-3H-quinazolin-4-one] | 300 to 3000 nM | < 300 nM | 300 to 3000 nM | < 300 nM | < 300 nM |  |  |
| COc1ccc(C2CCN(c3nc4c(c(=O)[nH]3)CCCC4)CC2)cc1 [Compound A55, 2-[4-(4-methoxy-phenyl)-piperidin-1-yl]-5,6,7,8-tetrahydro-3H-quinazolin-4-one] | 3000 to 50000 nM | < 300 nM | 300 to 3000 nM | < 300 nM | < 300 nM |  |  |
| O=c1[nH]c(N2CCN(c3ccccc3C(F)(F)F)CC2)nc2c1CCCC2 [Compound A56, 2-[4-(2-trifluoromethyl-phenyl)-piperazin-1-yl]-5,6,7,8-tetrahydro-3H-quinazolin-4-one] | 300 to 3000 nM | < 300 nM | 300 to 3000 nM | < 300 nM | < 300 nM |  |  |
| Oc1nc(-c2ccc(C(F)(F)F)cc2)nc2c1CSCC2 [XAV939] |  |  |  |  |  |  | inhibits growth |
